Laboratory results: paper PMC9834664, “Linking medicinal cannabis to autotaxin–lysophosphatidic acid signaling” (Life Science Alliance, 2023)
Entries after “also recorded” stand apart in the source; their conditions may differ.

Assays:
ATX-β [1] = biological target: T1, ATX-β (Homo sapiens, UniProt Q13822); test: End-point choline release assay, relative inhibition by cannabinoids; format: biochemical; details: 10 µM compound; for inhibition of ATX-β catalysis: LPC 18:1 200 µM; for ANOVA comparison with CTRL, ATX-β inhibition: significance threshold P 0.005
T1 construct: made in house; host or cells: HEK293-Flp-In cells, protein purified from the culture medium
Procedure: (§1) We first set out to validate the hypothesis that cannabinoids might bind ATX to modulate its catalytic function. For this, we used various cannabinoids (Fig 1A) at a fixed concentration of 10 µM for each compound in our biochemical validation with LPC 18:1 (200 µM) as substrates in an end-point assay for ATX-β (UniProt ID: Q13822-1) and ATX-γ (UniProt ID: Q13822-3) (Fig 1B and C). […] In addition, we can exclude interference of the cannabinoid compounds in our enzymatically coupled assay, as no difference is detectable in the absence of ATX and LPC (Fig S1B), performed in the presence of choline.
(§2) ATX lysophospholipase D activity was measured using choline release from LPC 18:1 and LPC 16:0 with a choline quantification kit ([Hausmann et al, 2016]) (Fig S6D). 30 nM ATX-β or ATX-γ was incubated with 200 µM LPC 18:1 or LPC 16:0 in a final volume of 100 µl buffer, which contained 50 mM Tris–HCl (pH 8.5) and 150 mM NaCl. The LPC solution was obtained by evaporating a commercial LPC chloroform solution directly in a 1.5-ml Eppendorf tube under vacuum. The dried LPC was then resuspended in water to obtain the mentioned concentration and incubated at 37°C on a shaker for 5–10 min before addition to the microplate. The cannabinoid solutions were prepared from a stock solution in ethanol or other organic solvents. After initial evaporation and/or dilution to obtain the highest concentration mentioned in the assay figure, a twofold dilution was performed in Eppendorf tubes. All the compounds were dissolved in 100% ethanol as a vehicle.
(§3) The experiments for determining relative inhibition for various cannabinoids were performed at 37°C by adding 10 µM of the cannabinoid or endocannabinoid mentioned. Released choline was detected, and the enzyme activity was determined by measuring fluorescence at λex/λem = 540/590 nm in 96-well plates, every 60 s for 50 min minimum using a CLARIOstar plate reader (BMG Labtech). Absolute values were taken at 25 min after visual inspection, and the 0-min baselines were subtracted to account for compound differences. The relative inhibition values were determined using the normalize method in GraphPad Prism (GraphPad Software, Inc.). Measurements have been performed in triplicate with three different protein preparations. All the compounds were controlled for interference of fluorescence and inhibition in the same assay conditions but in the absence of ATX and replacing LPC with choline.

ATX-γ [2] = biological target: T2, ATX-γ (Homo sapiens, UniProt Q13822); test: as above; format: biochemical; details: 10 µM compound; for inhibition of ATX-γ catalysis: LPC 18:1 200 µM; for ANOVA comparison with CTRL, ATX-γ inhibition: significance threshold P 0.005
T2 construct: made in house; host or cells: HEK293-Flp-In cells, protein purified from the culture medium
Procedure: as §1, §2, §3

CB2 = details: cited from earlier work
CB1 = details: cited from earlier work
[3] = tested on: LPA1 receptor internalization in HA/LPA1-transfected HeLa cells; test: hLPA1 receptor internalization assay; format: cell-based, human
ATX-γ [4] = biological target: T2, ATX-γ; test: Mode of inhibition analysis with increasing LPC 18:1; format: biochemical; parameters: Vmax: unit not given here
[5] = ref Hunault et al, 2008, cited from earlier work
ATX-β [6] = biological target: T1, ATX-β; test: Dose–response choline release assay; format: biochemical; details: LPC 18:1
Procedure: (§4) ATX lysophospholipase D activity was measured using choline release from LPC 18:1 and LPC 16:0 with a choline quantification kit ([Hausmann et al, 2016]). 30 nM ATX-β or ATX-γ was incubated with 200 µM LPC 18:1 or LPC 16:0 in a final volume of 100 µl buffer, which contained 50 mM Tris–HCl (pH 8.5) and 150 mM NaCl. The LPC solution was obtained by evaporating a commercial LPC chloroform solution directly in a 1.5-ml Eppendorf tube under vacuum. The dried LPC was then resuspended in water to obtain the mentioned concentration and incubated at 37°C on a shaker for 5–10 min before addition to the microplate.
(§5) The experiment for determining apparent EC50 for various cannabinoids was performed at 37°C by adding the cannabinoid in a serial twofold dilution for each concentration. The cannabinoid solutions were prepared from a stock solution in ethanol or other organic solvents. After initial evaporation and/or dilution to obtain the highest concentration mentioned in the assay figure, a twofold dilution was performed in Eppendorf tubes. All the compounds were dissolved in 100% ethanol as a vehicle. […] For CBN, 5-DMH-CBD, and CBD, the starting concentration was 50 µM, 150 µM, and 2 mM, respectively. Released choline was detected, and the enzyme activity was determined by measuring fluorescence at λex/λem = 540/590 nm in 96-well plates, every 60 s for 50 min minimum using a CLARIOstar plate reader (BMG Labtech). Initial velocities were taken between 19 and 31 min after visual inspection. The apparent EC50 values were determined using the non-linear regression analysis method (fit: [inhibitor] versus response [three parameter]) in GraphPad Prism (GraphPad Software, Inc.). However, it should be mentioned that the relative concentrations of the different lipids/inhibitors in their physical form as micelles, liposomes, protein-bound, or aggregates are unknown ([Carman et al, 1995]). These uncertainties are widely known, and we provide here an apparent EC50 for consideration. Measurements have been performed in triplicate with three different protein preparations. […]

ATX-γ [7] = biological target: T2, ATX-γ; test: Dose–response choline release assay; format: biochemical; details: LPC 18:1
Procedure: as §4, §5

[8] = no reference given; cited from earlier work

Row | Compound | inhibition of ATX-β catalysis (ATX-β [1]) | ANOVA comparison with CTRL, ATX-β inhibition (ATX-β [1]) | inhibition of ATX-γ catalysis (ATX-γ [2]) | ANOVA comparison with CTRL, ATX-γ inhibition (ATX-γ [2]) | also measured
1 | CCCCC/C=C\C/C=C\C/C=C\C/C=C\CCCC(=O)OC(CO)CO [2-AG, 2-arachidonoylglycerol] | did not affect the catalysis | not significantly inhibited | did not affect the catalysis | not significantly inhibited | –
2 | CCCCCc1cc(O)c2c(c1)OC(C)(C)C1=C2C[C@H](C)CC1 [6a10aTHC, 9(R)-Δ6a,10a-THC] | further increase in the magnitude of inhibition | statistically significant differences | further increase in the magnitude of inhibition | – | –
3 | C=C(C)[C@@H]1CCC(C)=C[C@H]1c1c(O)cc(CCCCC)cc1O [CBD, cannabidiol] | weak inhibition | statistically significant differences | no observable inhibition | – | –
4 | CCCCCn1cc(C(=O)c2cccc3ccccc23)c2ccccc21 [JWH018] | did not influence the catalytic activity | not significantly inhibited | did not influence the catalytic activity | not significantly inhibited | Ki (CB2; CB2, ref Aung et al, 2000): 2.9 ± 2.7 nM; Ki (CB1; CB1, ref Aung et al, 2000): 9 ± 8 nM
5 | CCCCCc1cc(O)c2c(c1)OC(C)(C)[C@@H]1CCC(C)=C[C@@H]21 [THC, Δ^9-trans-tetrahydrocannabinol] | more than 50% | statistically significant differences | more than 50% | – | LPA1 internalization ([3]; 30 nM ATX, 150 µM LPC 18:1, 1 µM THC, paired t test P = 0.0008): significantly reduced LPA1 internalization; also recorded: reduced the number of endosomes internalized; LPA1 internalization ([3]; LPA in the presence of THC): LPA1 receptors were internalized; LPA1 internalization ([3]; THC alone (1 µM)): No internalization; inhibition of ATX-LPA signaling (LPA1 internalization) ([3]; higher LPC concentration, 400 µM LPC, P = 0.0068): not abolished; Vmax (ATX-γ [4]; 0.35 µM THC (8.5 without THC)): 7.3; Km (ATX-γ [4]; 0.35 µM THC (10.1 without THC)): 19.6 µM; Vmax (ATX-γ [4]; 0.7 µM THC (8.5 without THC)): 6.3; Km (ATX-γ [4]; 0.7 µM THC (10.1 without THC)): 29.9 µM; Vmax (ATX-γ [4]; 1.4 µM THC (8.5 without THC)): 5.0; Km (ATX-γ [4]; 1.4 µM THC (10.1 without THC)): 31.5 µM; mode of inhibition (ATX-γ [4]; ATX-γ, LPC 18:1): mixed-type inhibition; also recorded: mixed-type inhibitor; binding to CB2 (CB2; ref Pertwee, 2008): low nanomolar regime; binding to CB1 (CB1; ref Pertwee, 2008): low nanomolar regime; mean THC peak in serum ([5]; 69.4-mg THC dose, SD = 106.8): 190.4 ng/mL; serum concentration of THC, lower end of range in molar units ([5]; after a 49.1-mg THC dose, equals 59 ng/ml): 190 nM; serum concentration of THC, upper end of range in molar units ([5]; after a 49.1-mg THC dose, equals 421 ng/ml): 1300 nM; magnitude of inhibition (maximum inhibition) (ATX-β [6]): around 60%; type of inhibitor (ATX-β [6]): partial inhibitor; type of inhibitor (ATX-γ [7]): partial inhibitor; bound to plasma proteins [8]: 95–97%
6 | CCCCCc1cc2c(c(O)c1C(=O)O)[C@@H]1C=C(C)CC[C@H]1C(C)(C)O2 [Tetrahydrocannabinolic acid, tetrahydrocannabinolic acid] | < 50% | statistically significant differences | < 50% | – | –
7 | CCCCC/C=C\C/C=C\C/C=C\C/C=C\CCCC(=O)NCCO [anandamide] | did not affect the catalysis | not significantly inhibited | did not affect the catalysis | not significantly inhibited | –
8 | lysophosphatidic acid [LPA] | – | – | – | – | LPA1 internalization ([3]; LPA treatment of cells (1 µM LPA 18:1)): high LPA1 receptor internalization
